Measured values from PubChem BioAssay AID1963970 (Molecular Pharmacology Branch, DTP, NCI, 2024).

Test system: 931267-113-T-J1-PDC multicell spheroid viability
Assay: Anticancer human tumor 931267-113-T-J1-PDC patient-derived colon adenocarcinoma cell line growth inhibition [PI3K]
Conditions: for IC50: curve of first compound; for viability, T/C: stronger effect = lower value; active = viability on the fitted dose curve at most 10% of control; inactive = the rest
How it was run: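 Tumor cells were combined with HUVEC and MSCs into spheroids, then dosed with PI3K-inhibitor combinations over half-log ranges capped near clinical Cmax or 10 microM.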

[1] = second compound 0.0316 µM, first compound 0.0316 µM
[2] = second compound 0.0316 µM, first compound 0.1 µM
[3] = second compound 0.0316 µM, first compound 0.316 µM
[4] = second compound 0.0316 µM, first compound 1 µM
[5] = second compound 0.0316 µM, first compound 3.16 µM
[6] = second compound 0.0316 µM, first compound 10 µM
[7] = second compound 0.1 µM, first compound 0.0316 µM
[8] = second compound 0.1 µM, first compound 0.1 µM
[9] = second compound 0.1 µM, first compound 0.316 µM
[10] = second compound 0.1 µM, first compound 1 µM
[11] = second compound 0.1 µM, first compound 3.16 µM
[12] = second compound 0.1 µM, first compound 10 µM
[13] = second compound 0.316 µM, first compound 0.0316 µM
[14] = second compound 0.316 µM, first compound 0.1 µM
[15] = second compound 0.316 µM, first compound 0.316 µM
[16] = second compound 0.316 µM, first compound 1 µM
[17] = second compound 0.316 µM, first compound 3.16 µM
[18] = second compound 0.316 µM, first compound 10 µM
[19] = second compound 1 µM, first compound 0.0316 µM
[20] = second compound 1 µM, first compound 0.1 µM
[21] = second compound 1 µM, first compound 0.316 µM
[22] = second compound 1 µM, first compound 1 µM
[23] = second compound 1 µM, first compound 3.16 µM
[24] = second compound 1 µM, first compound 10 µM
[25] = second compound 3.16 µM, first compound 0.0316 µM
[26] = second compound 3.16 µM, first compound 0.1 µM
[27] = second compound 3.16 µM, first compound 0.316 µM
[28] = second compound 3.16 µM, first compound 1 µM
[29] = second compound 3.16 µM, first compound 3.16 µM
[30] = second compound 3.16 µM, first compound 10 µM
[31] = second compound 10 µM, first compound 0.0316 µM
[32] = second compound 10 µM, first compound 0.1 µM
[33] = second compound 10 µM, first compound 0.316 µM
[34] = second compound 10 µM, first compound 1 µM
[35] = second compound 10 µM, first compound 3.16 µM
[36] = second compound 10 µM, first compound 10 µM
[37] = second compound 0.0316 µM, first compound 0.00316 µM
[38] = second compound 0.0316 µM, first compound 0.01 µM
[39] = second compound 0.1 µM, first compound 0.00316 µM
[40] = second compound 0.1 µM, first compound 0.01 µM
[41] = second compound 0.316 µM, first compound 0.00316 µM
[42] = second compound 0.316 µM, first compound 0.01 µM
[43] = second compound 1 µM, first compound 0.00316 µM
[44] = second compound 1 µM, first compound 0.01 µM
[45] = second compound 3.16 µM, first compound 0.00316 µM
[46] = second compound 3.16 µM, first compound 0.01 µM
[47] = second compound 10 µM, first compound 0.00316 µM
[48] = second compound 10 µM, first compound 0.01 µM
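Note: viability read 7 days after compound addition.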

CC(C)NCC(C(=O)N1CCN(c2ncnc3c2C(C)CC3O)CC1)c1ccc(Cl)cc1 (stereo not given) + Cc1nc(NC(=O)N2CCCC2C(N)=O)sc1-c1ccnc(C(C)(C)C(F)(F)F)c1
inactive: viability, T/C [1] 103% | viability, T/C [2] 103% | viability, T/C [3] 90.9% | viability, T/C [4] 95.2% | viability, T/C [5] 97.6% | viability, T/C [6] 73.5% | viability, T/C [7] 97.8% | viability, T/C [8] 85.5% | viability, T/C [9] 92.6% | viability, T/C [10] 86.7% | viability, T/C [11] 83.5% | viability, T/C [12] 71.7% | viability, T/C [13] 97.9% | viability, T/C [14] 89.6% | viability, T/C [15] 88.7% | viability, T/C [16] 84% | viability, T/C [17] 80.4% | viability, T/C [18] 68.6% | viability, T/C [19] 82.2% | viability, T/C [20] 80.4% | viability, T/C [21] 89.3% | viability, T/C [22] 88.8% | viability, T/C [23] 79.9% | viability, T/C [24] 67.7% | viability, T/C [25] 73.2% | viability, T/C [26] 81.1% | viability, T/C [27] 67.7% | viability, T/C [28] 65% | viability, T/C [29] 70% | viability, T/C [30] 61% | viability, T/C [31] 60.4% | viability, T/C [32] 52.4% | viability, T/C [33] 59% | viability, T/C [34] 57.4% | viability, T/C [35] 62.8% | viability, T/C [36] 51.4%
> 10 µM: IC50 (second compound 0.0316 µM) | IC50 (second compound 0.1 µM) | IC50 (second compound 0.316 µM) | IC50 (second compound 1 µM) | IC50 (second compound 3.16 µM) | IC50 (second compound 10 µM)

CCN1CCN(Cc2ccc(Nc3ncc(F)c(-c4cc(F)c5nc(C)n(C(C)C)c5c4)n3)nc2)CC1 + Cc1nc(NC(=O)N2CCCC2C(N)=O)sc1-c1ccnc(C(C)(C)C(F)(F)F)c1
> 1 µM: IC50 (second compound 0.0316 µM) | IC50 (second compound 0.1 µM) | IC50 (second compound 0.316 µM) | IC50 (second compound 1 µM) | IC50 (second compound 3.16 µM) | IC50 (second compound 10 µM)
inactive: viability, T/C [37] 91.7% | viability, T/C [38] 99.6% | viability, T/C [1] 100% | viability, T/C [2] 103% | viability, T/C [3] 94.3% | viability, T/C [4] 86.2% | viability, T/C [39] 98% | viability, T/C [40] 97.1% | viability, T/C [7] 102% | viability, T/C [8] 96.5% | viability, T/C [9] 84.6% | viability, T/C [10] 84.5% | viability, T/C [41] 91.2% | viability, T/C [42] 81.2% | viability, T/C [13] 96.1% | viability, T/C [14] 91.8% | viability, T/C [15] 81% | viability, T/C [16] 75.1% | viability, T/C [43] 69.4% | viability, T/C [44] 83.1% | viability, T/C [19] 79.7% | viability, T/C [20] 77.5% | viability, T/C [21] 71.5% | viability, T/C [22] 62.4% | viability, T/C [45] 71.4% | viability, T/C [46] 80.7% | viability, T/C [25] 66.8% | viability, T/C [26] 61.9% | viability, T/C [27] 55.8% | viability, T/C [28] 59.4% | viability, T/C [47] 58.6% | viability, T/C [48] 57% | viability, T/C [31] 50.1% | viability, T/C [32] 43.3% | viability, T/C [33] 50.4% | viability, T/C [34] 57.2%

Cn1ncc(Cl)c1-c1cc(C(=O)NC(CN)Cc2cccc(F)c2)sc1Cl (stereo not given) + Cc1nc(NC(=O)N2CCCC2C(N)=O)sc1-c1ccnc(C(C)(C)C(F)(F)F)c1
4.31 µM: IC50 (second compound 1 µM)
5.52 µM: IC50 (second compound 0.316 µM)
5.39 µM: IC50 (second compound 0.1 µM)
inactive: viability, T/C [1] 97.3% | viability, T/C [2] 89% | viability, T/C [3] 88.7% | viability, T/C [4] 73.6% | viability, T/C [5] 79.7% | viability, T/C [6] 33.6% | viability, T/C [7] 101% | viability, T/C [8] 86% | viability, T/C [9] 91.4% | viability, T/C [10] 85% | viability, T/C [11] 68.3% | viability, T/C [12] 29.4% | viability, T/C [13] 89.3% | viability, T/C [14] 94% | viability, T/C [15] 83.2% | viability, T/C [16] 85.9% | viability, T/C [17] 68.2% | viability, T/C [18] 30.2% | viability, T/C [19] 84.3% | viability, T/C [20] 84.7% | viability, T/C [21] 77% | viability, T/C [22] 68.7% | viability, T/C [23] 59.9% | viability, T/C [24] 30.1% | viability, T/C [25] 73.6% | viability, T/C [26] 61.7% | viability, T/C [27] 66.9% | viability, T/C [28] 63.8% | viability, T/C [29] 58.8% | viability, T/C [30] 23.5% | viability, T/C [31] 69.9% | viability, T/C [32] 61.6% | viability, T/C [33] 58.7% | viability, T/C [34] 60.5% | viability, T/C [35] 48.9% | viability, T/C [36] 21.9%
2.63 µM: IC50 (second compound 10 µM)
4.15 µM: IC50 (second compound 3.16 µM)
6.31 µM: IC50 (second compound 0.0316 µM)

Cn1nccc1Nc1nccc(-c2ccn(C(CO)c3ccc(Cl)c(F)c3)c(=O)c2)n1 (stereo not given) + Cc1nc(NC(=O)N2CCCC2C(N)=O)sc1-c1ccnc(C(C)(C)C(F)(F)F)c1
3.57 µM: IC50 (second compound 0.1 µM)
0.65 µM: IC50 (second compound 3.16 µM)
inactive: viability, T/C [1] 94.7% | viability, T/C [2] 90.4% | viability, T/C [3] 92.4% | viability, T/C [4] 77.2% | viability, T/C [5] 57.5% | viability, T/C [6] 37.3% | viability, T/C [7] 102% | viability, T/C [8] 88.4% | viability, T/C [9] 82.8% | viability, T/C [10] 68.9% | viability, T/C [11] 52.9% | viability, T/C [12] 31.7% | viability, T/C [13] 90.3% | viability, T/C [14] 92.2% | viability, T/C [15] 77.9% | viability, T/C [16] 68% | viability, T/C [17] 43.9% | viability, T/C [18] 27.5% | viability, T/C [19] 86.4% | viability, T/C [20] 78.5% | viability, T/C [21] 71.4% | viability, T/C [22] 54% | viability, T/C [23] 39.5% | viability, T/C [24] 19.1% | viability, T/C [25] 74.9% | viability, T/C [26] 65.2% | viability, T/C [27] 58.1% | viability, T/C [28] 43.6% | viability, T/C [29] 36.3% | viability, T/C [30] 15.2% | viability, T/C [31] 57% | viability, T/C [32] 50.7% | viability, T/C [33] 45.2% | viability, T/C [34] 39.4% | viability, T/C [35] 26.4% | viability, T/C [36] 14.3%
2.38 µM: IC50 (second compound 0.316 µM)
4.76 µM: IC50 (second compound 0.0316 µM)
1.47 µM: IC50 (second compound 1 µM)
0.143 µM: IC50 (second compound 10 µM)

Cn1ncnc1[C@H]1c2n[nH]c(=O)c3cc(F)cc(c23)N[C@@H]1c1ccc(F)cc1 + Cc1nc(NC(=O)N2CCCC2C(N)=O)sc1-c1ccnc(C(C)(C)C(F)(F)F)c1
inactive: viability, T/C (second compound 0.0316 µM, first compound 0.000316 µM) 107% | viability, T/C (second compound 0.0316 µM, first compound 0.001 µM) 98.2% | viability, T/C [37] 84.2% | viability, T/C [38] 94.1% | viability, T/C [1] 91% | viability, T/C [2] 97.5% | viability, T/C (second compound 0.1 µM, first compound 0.000316 µM) 113% | viability, T/C (second compound 0.1 µM, first compound 0.001 µM) 94.8% | viability, T/C [39] 107% | viability, T/C [40] 98.8% | viability, T/C [7] 90.2% | viability, T/C [8] 75.1% | viability, T/C (second compound 0.316 µM, first compound 0.000316 µM) 93.9% | viability, T/C (second compound 0.316 µM, first compound 0.001 µM) 89.5% | viability, T/C [41] 89.5% | viability, T/C [42] 95% | viability, T/C [13] 82% | viability, T/C [14] 89.8% | viability, T/C (second compound 1 µM, first compound 0.000316 µM) 74.5% | viability, T/C (second compound 1 µM, first compound 0.001 µM) 73.7% | viability, T/C [43] 86.3% | viability, T/C [44] 78.5% | viability, T/C [19] 79.7% | viability, T/C [20] 72.1% | viability, T/C (second compound 3.16 µM, first compound 0.000316 µM) 78.9% | viability, T/C (second compound 3.16 µM, first compound 0.001 µM) 68.6% | viability, T/C [45] 61.7% | viability, T/C [46] 63.8% | viability, T/C [25] 70.7% | viability, T/C [26] 64.6% | viability, T/C (second compound 10 µM, first compound 0.000316 µM) 57.7% | viability, T/C (second compound 10 µM, first compound 0.001 µM) 55.2% | viability, T/C [47] 54.2% | viability, T/C [48] 51.8% | viability, T/C [31] 59.2% | viability, T/C [32] 52.8%
> 0.1 µM: IC50 (second compound 0.0316 µM) | IC50 (second compound 0.1 µM) | IC50 (second compound 0.316 µM) | IC50 (second compound 1 µM) | IC50 (second compound 3.16 µM) | IC50 (second compound 10 µM)
